Source: patent US7666646B2, “Crystal structure of human Pim-1 kinase protein complexes and binding pockets thereof, and uses thereof in drug design” (priority 2003, dated 2010)
Where two headings read alike, the source gives them in different places.

How the values were obtained:
Pim-1 = Pim-1 (Homo sapiens, UniProt P11309); assay: Coupled-enzyme kinase assay with S6 peptide substrate (Pim-1 IC50 determination); assay type: biochemical
Method: The assay was carried out in a total volume of 100 μl in 0.1 M HEPES buffer (pH 7.6) containing 10 mM MgCl2, 2.5 mM phosphoenolpyruvate, 0.2 mM NADH, 30 μg/ml pyruvate kinase, 10 μg/ml lactate dehydrogenase (Roche Diagnostics Corp., Indianapolis, Ind.) and 2 mM DTT in a 96-well plate, and read at 340 nm at 30° C. on a Spectramax spectrophotometer (Molecular Devices, Sunnyvale, Calif.). […] The reaction was started by addition of ATP after 10 minutes pre-incubation of the reaction mixture at 30° C. […] Kinetic analysis was performed by non-linear regression fitting using the program Prism (GraphPad software, San Diego, Calif., USA).

Casein kinase 2 (CK2) = Casein kinase 2 (CK2) (Homo sapiens, UniProt P68400); conditions: Davies et al., supra; read-out: IC50 / potency of Casein kinase 2 inhibition; cited from earlier work
Chain of Casein kinase 2 (CK2) (P68400 whole entry): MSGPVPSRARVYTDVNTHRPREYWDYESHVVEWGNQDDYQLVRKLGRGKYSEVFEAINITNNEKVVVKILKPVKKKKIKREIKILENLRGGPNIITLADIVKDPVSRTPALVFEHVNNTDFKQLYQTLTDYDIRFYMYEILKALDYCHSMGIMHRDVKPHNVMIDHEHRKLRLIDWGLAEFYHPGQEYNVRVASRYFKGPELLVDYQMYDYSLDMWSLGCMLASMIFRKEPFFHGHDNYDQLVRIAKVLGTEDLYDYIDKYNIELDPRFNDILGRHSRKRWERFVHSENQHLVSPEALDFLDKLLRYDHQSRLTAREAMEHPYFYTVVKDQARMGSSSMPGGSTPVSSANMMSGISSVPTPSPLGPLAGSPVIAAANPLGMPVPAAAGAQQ

PKA = PKA (Homo sapiens, UniProt P17612); conditions: in the presence of 50 μM LY294002; cited from earlier work
PI3K = conditions: cited from earlier work

Chain of Pim-1 (P11309 whole entry): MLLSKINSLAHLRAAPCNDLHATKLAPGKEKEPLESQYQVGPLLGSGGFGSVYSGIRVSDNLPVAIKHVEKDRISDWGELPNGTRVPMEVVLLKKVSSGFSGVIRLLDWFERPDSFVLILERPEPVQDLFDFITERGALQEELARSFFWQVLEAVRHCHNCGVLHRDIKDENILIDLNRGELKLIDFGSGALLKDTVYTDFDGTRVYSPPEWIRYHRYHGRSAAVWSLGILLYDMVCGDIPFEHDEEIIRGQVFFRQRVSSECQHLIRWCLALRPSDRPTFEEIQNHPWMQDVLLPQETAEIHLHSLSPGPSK

Row | Compound | IC50 (Pim-1) [µM] | potency of Pim-1 inhibition (Pim-1; panel of kinase inhibitors, refers to Table 1) | IC50 (Casein kinase 2 (CK2)) [µM] | reduction of PKA activity (PKA) [%] | IC50 (PI3K; Davies et al., Biochem. J. 351: 95-105 (2000), read-out: potency of PI3K inhibition reported by Davies et al.) [µM] | IC50 (PI3K; Mizuno et al., FEBS Lett. 330: 114-116 (1993) as cited, read-out: IC50 for PI3K, as originally described) [µM]
1 | COC(=O)[C@]1(O)C[C@@H]2O[C@@]1(C)n1c3ccccc3c3c4c(c5c6ccccc6n2c5c31)C(=O)NC4 [K-252a] | 0.15 | sub-micromolar | – | – | – | –
2 | O=c1cc(N2CCOCC2)oc2c(-c3ccccc3)cccc12 [LY294002, 2-(4-morpholinyl)-8-phenyl-4H-1-benzopyran-4-one] | – | – | 6.9 | 9 | […] | […]
